Experimental findings from ChEMBL document CHEMBL4396901, “Discovery of Potent and Noncovalent Reversible EGFR Kinase Inhibitors of EGFRL858R/T790M/C797S” (ACS Med Chem Lett, 2019) are described below.

The target of experiment [1] is Epidermal growth factor receptor (Homo sapiens, UniProt P00533, C797S/EX19DEL/T790M). Kind of experiment: Inhibition of EGFR 19D/T790M/C797S mutant (unknown origin) using poly (Glu,Tyr) 4:1 as substrate incubated for 1 hr in presence of ATP by ELISA. Background: An ELISA detects its analyte on a solid surface through an enzyme-linked reagent.
In the next experiment the test system is NCI-H1975. As to the kind of experiment: Antiproliferative activity human NCI-H1975 cells incubated for 72 hrs by SRB assay. The conditions noted are these: NCI-H1975, 72 h. It is filed as functional, cell-based. In general terms: The SRB assay estimates cell density from bound dye.
The target in experiment [2] is BDNF/NT-3 growth factors receptor (Homo sapiens) (UniProt Q16620). Kind of experiment: Inhibition of TrkB (unknown origin) at 100 nM relative to control.
The target in experiment [3] is Insulin receptor (Homo sapiens) (UniProt P06213). As to the kind of experiment: Inhibition of IR (unknown origin) at 100 nM relative to control.
The target in experiment [4] is Receptor tyrosine-protein kinase erbB-4 (Homo sapiens) (UniProt Q15303). Kind of experiment: Inhibition of ErbB4 (unknown origin) at 100 nM relative to control.
Sequence of Receptor tyrosine-protein kinase erbB-4 (Homo sapiens) (Q15303 whole entry, the tested form may be a part): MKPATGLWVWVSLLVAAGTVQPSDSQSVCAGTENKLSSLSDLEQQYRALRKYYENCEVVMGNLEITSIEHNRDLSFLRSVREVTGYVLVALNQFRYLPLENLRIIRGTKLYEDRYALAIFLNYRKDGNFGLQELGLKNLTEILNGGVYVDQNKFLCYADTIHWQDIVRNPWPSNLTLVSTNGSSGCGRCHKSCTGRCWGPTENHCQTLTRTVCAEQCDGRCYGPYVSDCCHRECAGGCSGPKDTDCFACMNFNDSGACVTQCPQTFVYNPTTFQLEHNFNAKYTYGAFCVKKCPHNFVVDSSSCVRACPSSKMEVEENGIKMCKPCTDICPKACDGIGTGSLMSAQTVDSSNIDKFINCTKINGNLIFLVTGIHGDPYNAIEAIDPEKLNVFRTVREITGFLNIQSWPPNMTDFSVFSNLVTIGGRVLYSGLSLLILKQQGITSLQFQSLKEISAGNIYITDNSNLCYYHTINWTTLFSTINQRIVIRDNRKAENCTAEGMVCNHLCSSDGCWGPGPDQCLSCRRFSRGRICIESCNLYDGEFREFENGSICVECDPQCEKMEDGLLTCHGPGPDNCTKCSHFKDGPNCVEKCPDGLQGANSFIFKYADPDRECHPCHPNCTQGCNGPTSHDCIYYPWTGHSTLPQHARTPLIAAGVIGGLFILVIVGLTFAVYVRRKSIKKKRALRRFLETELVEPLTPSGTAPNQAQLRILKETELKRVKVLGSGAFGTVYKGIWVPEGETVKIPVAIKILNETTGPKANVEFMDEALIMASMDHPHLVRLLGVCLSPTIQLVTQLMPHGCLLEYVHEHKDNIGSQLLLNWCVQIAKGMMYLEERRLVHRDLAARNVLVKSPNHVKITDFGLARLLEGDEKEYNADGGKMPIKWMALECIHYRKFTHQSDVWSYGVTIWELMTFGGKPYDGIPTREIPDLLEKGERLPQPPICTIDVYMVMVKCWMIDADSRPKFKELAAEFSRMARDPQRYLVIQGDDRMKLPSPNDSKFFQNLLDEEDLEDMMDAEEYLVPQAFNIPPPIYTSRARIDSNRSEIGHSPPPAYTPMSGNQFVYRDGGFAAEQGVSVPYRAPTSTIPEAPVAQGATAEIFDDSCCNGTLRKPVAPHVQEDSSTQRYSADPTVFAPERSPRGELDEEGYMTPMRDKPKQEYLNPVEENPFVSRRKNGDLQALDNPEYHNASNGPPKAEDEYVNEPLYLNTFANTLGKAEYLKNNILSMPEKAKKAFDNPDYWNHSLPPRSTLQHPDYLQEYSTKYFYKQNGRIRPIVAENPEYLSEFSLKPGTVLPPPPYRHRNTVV
The target of experiment [5] is Epidermal growth factor receptor (Homo sapiens, UniProt P00533, C797S/L858R/T790M). As to the kind of experiment: Inhibition of recombinant human C-terminal His-tagged/N-terminal GST-tagged EGFR (668 to 1210 residues) T790M/L858R/C797S mutant expressed in baculovirus expression system using poly (Glu,Tyr) 4:1 as substrate incubated for 1 hr in presence of ATP by ELISA.

The target in experiment [6] is Platelet-derived growth factor receptor alpha (Homo sapiens) (UniProt P16234). As to the kind of experiment: Inhibition of PDGFRalpha (unknown origin) at 100 nM relative to control.
In experiment [7] the target is Tyrosine-protein kinase receptor UFO (Homo sapiens) (UniProt P30530). As to the kind of experiment: Inhibition of AXL (unknown origin) at 100 nM relative to control.
Sequence of Tyrosine-protein kinase receptor UFO (Homo sapiens) (P30530 whole entry): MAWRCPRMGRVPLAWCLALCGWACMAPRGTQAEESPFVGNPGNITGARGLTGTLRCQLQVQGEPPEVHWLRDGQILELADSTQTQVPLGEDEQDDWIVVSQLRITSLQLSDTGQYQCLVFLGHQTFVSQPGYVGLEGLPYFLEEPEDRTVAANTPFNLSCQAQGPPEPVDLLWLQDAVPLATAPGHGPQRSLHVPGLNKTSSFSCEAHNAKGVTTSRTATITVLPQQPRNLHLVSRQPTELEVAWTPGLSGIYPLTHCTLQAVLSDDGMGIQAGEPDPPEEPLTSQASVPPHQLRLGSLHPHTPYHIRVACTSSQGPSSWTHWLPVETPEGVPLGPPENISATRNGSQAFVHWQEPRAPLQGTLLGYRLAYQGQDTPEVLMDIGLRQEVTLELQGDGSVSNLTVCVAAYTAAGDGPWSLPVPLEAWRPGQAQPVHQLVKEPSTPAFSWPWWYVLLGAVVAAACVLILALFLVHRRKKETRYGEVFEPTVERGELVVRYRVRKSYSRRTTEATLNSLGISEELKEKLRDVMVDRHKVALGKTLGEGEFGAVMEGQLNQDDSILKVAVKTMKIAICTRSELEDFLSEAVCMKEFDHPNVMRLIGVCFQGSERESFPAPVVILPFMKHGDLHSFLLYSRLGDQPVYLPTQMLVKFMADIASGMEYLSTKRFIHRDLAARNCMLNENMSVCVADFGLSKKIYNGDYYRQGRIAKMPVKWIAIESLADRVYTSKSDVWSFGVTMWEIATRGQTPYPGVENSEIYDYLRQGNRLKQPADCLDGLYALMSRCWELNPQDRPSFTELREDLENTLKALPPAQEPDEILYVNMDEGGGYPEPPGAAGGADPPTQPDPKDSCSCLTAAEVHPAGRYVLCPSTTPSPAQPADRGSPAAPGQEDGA
The target in experiment [8] is Macrophage colony-stimulating factor 1 receptor (Homo sapiens) (UniProt P07333). As to the kind of experiment: Inhibition of CSF1R (unknown origin) at 100 nM relative to control.
Sequence of Macrophage colony-stimulating factor 1 receptor (Homo sapiens) (P07333 whole entry): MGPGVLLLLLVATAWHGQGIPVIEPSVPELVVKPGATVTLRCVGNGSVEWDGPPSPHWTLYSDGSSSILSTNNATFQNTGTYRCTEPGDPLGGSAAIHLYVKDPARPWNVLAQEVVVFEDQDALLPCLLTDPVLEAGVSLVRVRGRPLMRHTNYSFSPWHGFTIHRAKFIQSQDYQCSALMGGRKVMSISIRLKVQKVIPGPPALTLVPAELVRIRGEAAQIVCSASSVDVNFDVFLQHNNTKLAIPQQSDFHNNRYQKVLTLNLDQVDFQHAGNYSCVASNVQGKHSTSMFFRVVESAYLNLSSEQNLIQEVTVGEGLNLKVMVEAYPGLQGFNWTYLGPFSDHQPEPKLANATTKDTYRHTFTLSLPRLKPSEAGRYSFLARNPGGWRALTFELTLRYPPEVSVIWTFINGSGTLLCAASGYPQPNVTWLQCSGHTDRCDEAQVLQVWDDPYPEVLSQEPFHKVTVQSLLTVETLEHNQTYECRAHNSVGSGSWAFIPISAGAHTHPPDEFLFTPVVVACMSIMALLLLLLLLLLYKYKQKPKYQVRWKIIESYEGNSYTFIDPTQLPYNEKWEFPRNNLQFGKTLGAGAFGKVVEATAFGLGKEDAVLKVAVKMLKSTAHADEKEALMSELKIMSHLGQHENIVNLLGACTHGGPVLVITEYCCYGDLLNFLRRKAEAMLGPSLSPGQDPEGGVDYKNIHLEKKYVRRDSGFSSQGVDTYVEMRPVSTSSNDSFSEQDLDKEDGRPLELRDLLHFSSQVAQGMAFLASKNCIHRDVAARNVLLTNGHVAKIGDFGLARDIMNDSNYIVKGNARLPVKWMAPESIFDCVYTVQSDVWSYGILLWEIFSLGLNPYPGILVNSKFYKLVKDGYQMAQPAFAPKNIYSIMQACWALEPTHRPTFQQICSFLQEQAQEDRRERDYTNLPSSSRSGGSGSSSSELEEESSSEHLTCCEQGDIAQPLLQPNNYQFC
Experiment [9] concerns the target Fibroblast growth factor receptor 1 (Homo sapiens) (UniProt P11362). Kind of experiment: Inhibition of FGFR1 (unknown origin) at 100 nM relative to control.
In experiment [10] the target is Tyrosine-protein kinase JAK3 (Homo sapiens) (UniProt P52333). Kind of experiment: Inhibition of JAK3 (unknown origin) at 100 nM relative to control.
Sequence of Tyrosine-protein kinase JAK3 (Homo sapiens) (P52333 whole entry): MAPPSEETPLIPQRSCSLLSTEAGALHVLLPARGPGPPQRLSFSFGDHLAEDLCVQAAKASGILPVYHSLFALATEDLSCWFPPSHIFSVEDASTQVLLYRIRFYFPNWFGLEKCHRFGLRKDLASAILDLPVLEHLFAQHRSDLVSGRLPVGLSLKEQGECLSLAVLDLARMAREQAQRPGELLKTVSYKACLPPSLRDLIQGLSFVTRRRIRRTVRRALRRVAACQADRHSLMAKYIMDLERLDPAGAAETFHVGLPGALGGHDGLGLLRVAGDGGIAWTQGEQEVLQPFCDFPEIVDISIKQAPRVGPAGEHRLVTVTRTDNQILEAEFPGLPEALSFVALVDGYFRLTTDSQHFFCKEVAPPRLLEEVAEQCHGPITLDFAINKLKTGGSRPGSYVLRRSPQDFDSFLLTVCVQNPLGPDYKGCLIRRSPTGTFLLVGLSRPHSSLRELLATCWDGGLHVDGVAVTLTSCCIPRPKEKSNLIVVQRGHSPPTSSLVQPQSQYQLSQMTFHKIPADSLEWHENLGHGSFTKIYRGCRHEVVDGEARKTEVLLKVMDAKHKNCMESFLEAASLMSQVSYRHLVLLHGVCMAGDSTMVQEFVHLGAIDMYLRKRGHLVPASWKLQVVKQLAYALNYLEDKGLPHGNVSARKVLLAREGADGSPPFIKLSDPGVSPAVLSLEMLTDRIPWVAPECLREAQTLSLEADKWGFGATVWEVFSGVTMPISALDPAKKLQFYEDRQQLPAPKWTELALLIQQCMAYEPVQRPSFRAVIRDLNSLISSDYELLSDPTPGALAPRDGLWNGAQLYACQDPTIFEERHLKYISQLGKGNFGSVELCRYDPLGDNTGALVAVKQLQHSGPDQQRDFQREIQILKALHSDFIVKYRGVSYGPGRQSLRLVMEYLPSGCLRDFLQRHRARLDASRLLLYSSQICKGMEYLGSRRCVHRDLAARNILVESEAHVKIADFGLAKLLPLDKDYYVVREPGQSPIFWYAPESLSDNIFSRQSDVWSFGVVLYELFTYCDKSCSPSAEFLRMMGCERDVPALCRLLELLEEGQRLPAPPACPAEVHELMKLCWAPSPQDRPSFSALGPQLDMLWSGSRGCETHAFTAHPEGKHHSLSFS

SMILES strings stand for the structures. A value given as a limit tells only on which side of the number the result lay.

Sequence of Fibroblast growth factor receptor 1 (Homo sapiens) (P11362 22-822 limits assumed): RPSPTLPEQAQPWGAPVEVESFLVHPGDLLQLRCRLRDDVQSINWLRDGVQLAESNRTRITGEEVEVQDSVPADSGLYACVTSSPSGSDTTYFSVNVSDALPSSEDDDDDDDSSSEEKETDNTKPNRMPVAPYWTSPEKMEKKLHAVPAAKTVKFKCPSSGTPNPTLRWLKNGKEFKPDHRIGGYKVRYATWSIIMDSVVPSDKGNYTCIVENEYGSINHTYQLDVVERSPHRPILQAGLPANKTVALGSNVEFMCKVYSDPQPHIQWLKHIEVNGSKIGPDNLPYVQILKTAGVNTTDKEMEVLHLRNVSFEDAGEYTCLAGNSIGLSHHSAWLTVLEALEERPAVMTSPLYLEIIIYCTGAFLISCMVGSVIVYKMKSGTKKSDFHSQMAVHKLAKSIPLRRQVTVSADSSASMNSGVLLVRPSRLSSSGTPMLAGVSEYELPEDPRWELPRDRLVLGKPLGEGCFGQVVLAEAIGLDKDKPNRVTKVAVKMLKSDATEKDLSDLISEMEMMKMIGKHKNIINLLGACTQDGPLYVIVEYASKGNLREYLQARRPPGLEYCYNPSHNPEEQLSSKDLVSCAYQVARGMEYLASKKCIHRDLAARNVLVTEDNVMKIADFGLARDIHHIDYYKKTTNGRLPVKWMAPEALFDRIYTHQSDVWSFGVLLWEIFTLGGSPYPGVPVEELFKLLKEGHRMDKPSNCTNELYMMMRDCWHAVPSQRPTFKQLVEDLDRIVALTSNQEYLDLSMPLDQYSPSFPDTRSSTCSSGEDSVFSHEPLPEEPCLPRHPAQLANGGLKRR

Regarding `COc1cc2c(Nc3ccc(NC(=O)C(c4cc(F)ccc4F)N4Cc5ccccc5C4=O)cc3F)ncnc2cc1OCC1CCN(C)CC1` (stereo unspecified), the 50% inhibitory concentration (IC50) – broadly, the concentration that gives 50% inhibition – was determined as 331 nM in experiment [1], 3030 nM with NCI-H1975 and 2.2 nM in experiment [5]. Moreover, the inhibition (as a rule, the drop in the measured response relative to a control, in per cent) in experiment [2] is less than 25%; in experiment [3] it was less than 25%; in [4], more than 90%; in [6] it was 50 to 75%; in [7], 50 to 75%; in experiment [8] it was less than 25%. In addition, the inhibition in experiment [9] and in experiment [10] was less than 25% each time.
